Reference: patent publication US20180015100A1, “COMBINATION PRODUCTS FOR THE TREATMENT OF BACTERIAL INFECTIONS AND METHODS OF PRODUCING OR DOSING OF SAME” (priority 2016, published 2018)
In brackets after ≈: the same amount, converted by molar mass. Like-named read-outs stand apart in the source and are kept apart here.

Legend:
[1] = target: T1, CTX-M-15 (Escherichia coli, UniProt Q9EXV5); type: biochemical
[2] = test system: Citrobacter freundii isolates; experiment: MIC of cephalosporins alone or with clavulanate/tazobactam; type: cell-based; details: clavulanate 2:1, tazobactam 4 μg/mL
[3] = test system: Francisella tularensis ShuS4; experiment: microbe, parasite or virus in culture; type: cell-based
[4] = clinical; details: human, in vivo, 400 mg
Experimental: The twice daily divided dose of study drug was administered approximately 12 hours apart. All subjects randomized to placebo received placebo oral capsules that were identical to study drug capsules and given according to the same dosing schedule and same quantity of capsules as subjects randomized to receive ceftibuten and clavulanate concurrently. All SDs, as well as the first daily dose of the MD period on […] were given while the subject was fasted. […] In addition, blood samples for assessment of trough (pre-dose) concentrations were collected on day 7, day 8, day 9, and alternate days thereafter through study day 17. […] Peak concentration (Cmax), time at which Cmax was observed (Tmax), area under the concentration-time curve to infinity (AUCinf), percent coefficient of variation (% CV), elimination half-life (T1/2), apparent total clearance of the drug from plasma after oral administration (CL/F), and apparent volume of distribution during terminal phase after non-intravenous administration (Vz/F) were determined. […] Similar to above, six subjects were randomized to receive active drug and two were randomized to receive placebo. […] Safety, tolerability and PK were assessed as described above.

[5] = test system: ESBL-producing Enterobacteriaceae isolates (panel of nineteen); experiment: MIC of cephalosporins alone or with clavulanate/tazobactam, whole panel; type: cell-based; details: cephalosporin alone
[6] = test system: ESBL Klebsiella pneumoniae isolates; experiment: Killing kinetics (time-kill); type: cell-based; details: 4X MIC of CTB+CLA
[7] = test system: Enterobacter cloacae isolates; experiment: MIC of cephalosporins alone or with clavulanate/tazobactam; type: cell-based; details: clavulanate 2:1, tazobactam 4 μg/mL
[8] = test system: Klebsiella pneumoniae isolates; experiment: as above; type: cell-based; details: clavulanate 2:1, tazobactam 4 μg/mL
[9] = test system: E. coli clinical isolate expressing the ESBL CTX-M-15; type: in vivo, mouse; details: 0.5-4 mg/kg q4 hr s.c. for 3 days
[10] = test system: Burkholderia mallei China7; experiment: microbe, parasite or virus in culture; type: cell-based
[11] = test system: ESBL Escherichia coli isolates; experiment: Killing kinetics (time-kill); type: cell-based; details: 4X MIC of CTB+CLA
[12] = test system: beta-lactamase producing E. coli (CTX-M-55; CTX-M-15, TEM-OSBL); experiment: microbe, parasite or virus in culture; type: cell-based
[13] = test system: ESBL Escherichia coli isolates; experiment: MIC against isolates analyzed in time-kill experiments; type: cell-based
[14] = test system: CTX-M-15 Strain; experiment: MIC of cephalosporins without and with CLV (Table 16); type: cell-based
[15] = test system: ESBL Klebsiella pneumoniae isolates; experiment: MIC against isolates analyzed in time-kill experiments; type: cell-based
[16] = target: T1, CTX-M-15; experiment: Competition assay with nitrocefin (IC50); type: biochemical
[17] = test system: Klebsiella oxytoca isolates; experiment: MIC of cephalosporins alone or with clavulanate/tazobactam; type: cell-based; details: clavulanate 2:1, tazobactam 4 μg/mL
[18] = test system: Burkholderia pseudomallei 1026b; experiment: microbe, parasite or virus in culture; type: cell-based
[19] = in vivo, cited from earlier work
[20] = test system: AECO001; experiment: MIC of cephalosporins (Table 16); type: cell-based
[21] = sub-saturating conditions, simulated from measured kinetic constants

T1 sequence (Q9EXV5 entry or part of it): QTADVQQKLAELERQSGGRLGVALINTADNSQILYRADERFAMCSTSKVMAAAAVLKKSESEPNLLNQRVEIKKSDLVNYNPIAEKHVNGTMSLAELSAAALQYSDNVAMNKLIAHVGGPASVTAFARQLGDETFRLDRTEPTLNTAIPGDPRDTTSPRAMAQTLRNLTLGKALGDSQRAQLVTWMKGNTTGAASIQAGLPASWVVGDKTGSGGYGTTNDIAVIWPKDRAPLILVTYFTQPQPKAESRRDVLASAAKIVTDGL

## Nc1nc(/C(=C/CC(=O)O)C(=O)N[C@@H]2C(=O)N3C(C(=O)O)=CCS[C@H]23)cs1 [Ceftibuten, ceftibuten]
[1]; direct-turnover assay
  concentration saturating CTX-M-15 activity: did not saturate CTX-M-15 activity
[1]; read-out: KM (95% CI), CTX-M-15-mediated hydrolysis
  Km: > 100 µM
[1]; [21]
  fold slower degradation by CTX-M-15 than cefixime: about 2.5 fold
  fold slower degradation by CTX-M-15 than cefotaxime: ~70 fold
  fold slower degradation by CTX-M-15 than cefpodoxime: ~67 fold
[2]; ACFR1034 (CTX-M-15, TEM-OSBL)
  MIC: > 64 µg/mL
[2]; ACFR1035 (CTX-M-3, TEM-OSBL)
  MIC: 16 µg/mL
[3]
  MIC: 0.25 µg/mL (≈ 0.609 µM)
[4]
  geometric mean % CV of exposure (Cmax and AUCinf): 11-16%
[4]; po, AUCinf
  AUC(0-inf): 93000 ng·h/mL
[4]; po, Cmax
  Cmax: 17900 ng/mL
[4]; po, T½
  half-life: 3.11 h
[4]; po, Vz/F
  Vd/F: 19.3 L
[5]; 19 isolates
  ESBL-producing isolates with MIC<8 μg/mL: 10 of 19
[5]; ESBL-producing Enterobacteriaceae
  MICs relative to CLSI/EUCAST MIC breakpoints for the approved dosing regimens: above the CLSI/EUCAST
[6]; AKPN1159, 2 h
  Change in Log10 CFU/mL From Inoculum (0 hr): 0.65 Log10 CFU/mL
[6]; AKPN1159, 4 h
  Change in Log10 CFU/mL From Inoculum (0 hr): 2.37 Log10 CFU/mL
[6]; AKPN1159, 6 h
  Change in Log10 CFU/mL From Inoculum (0 hr): 3.01 Log10 CFU/mL
[6]; AKPN1159, 24 h
  Change in Log10 CFU/mL From Inoculum (0 hr): 3.71 Log10 CFU/mL
[6]; AKPN1162, 2 h
  Change in Log10 CFU/mL From Inoculum (0 hr): 1.57 Log10 CFU/mL
[6]; AKPN1162, 4 h
  Change in Log10 CFU/mL From Inoculum (0 hr): 2.76 Log10 CFU/mL
[6]; AKPN1162, 6 h
  Change in Log10 CFU/mL From Inoculum (0 hr): 2.96 Log10 CFU/mL
[6]; AKPN1162, 24 h
  Change in Log10 CFU/mL From Inoculum (0 hr): 3.55 Log10 CFU/mL
[7]; AECL1065 (CTX-M-15)
  MIC: > 64 µg/mL
[7]; AECL1067 (CTX-M-3)
  MIC: 32 µg/mL
[8]; AKPN1159 (SHV-12)
  MIC: 4 µg/mL
[8]; AKPN1161 (SHV-7)
  MIC: 2 µg/mL
[8]; AKPN1162 (CTX-M-15, SHV-12)
  MIC: 32 µg/mL
[8]; AKPN1166 (CTX-M-14, SHV-12)
  MIC: 4 µg/mL
[8]; AKPN1167 (SHV-2)
  MIC: 2 µg/mL
[9]
  bacterial titers, bladder: 4.06-4.58 log10 CFU
  bacterial titers, kidneys: 4.26-5.83 log10 CFU
  bacterial titers, urine: 3.62-4.81 log10 CFU
  reduction of bacterial titers relative to untreated control, bladder: 2.8-3.35 log10 CFU
  reduction of bacterial titers relative to untreated control, kidneys: 0.6-2.17 log10 CFU
  reduction of bacterial titers relative to untreated control, urine: 2.46-3.65 log10 CFU
[10]
  MIC: 1 to 2 µg/mL (≈ 2.44 to 4.87 µM)
[11]; AECO1156, 2 h
  Change in Log10 CFU/mL From Inoculum (0 hr): 0.33 Log10 CFU/mL
[11]; AECO1156, 4 h
  Change in Log10 CFU/mL From Inoculum (0 hr): 2.35 Log10 CFU/mL
[11]; AECO1156, 6 h
  Change in Log10 CFU/mL From Inoculum (0 hr): 3.28 Log10 CFU/mL
[11]; AECO1156, 24 h
  Change in Log10 CFU/mL From Inoculum (0 hr): 3.98 Log10 CFU/mL
[11]; AECO1157, 2 h
  Change in Log10 CFU/mL From Inoculum (0 hr): 1.02 Log10 CFU/mL
[11]; AECO1157, 4 h
  Change in Log10 CFU/mL From Inoculum (0 hr): 2.88 Log10 CFU/mL
[11]; AECO1157, 6 h
  Change in Log10 CFU/mL From Inoculum (0 hr): 3.29 Log10 CFU/mL
[11]; AECO1157, 24 h
  Change in Log10 CFU/mL From Inoculum (0 hr): 3.63 Log10 CFU/mL
[11]; AECO1162, 2 h
  Change in Log10 CFU/mL From Inoculum (0 hr): −0.36 Log10 CFU/mL
[11]; AECO1162, 4 h
  Change in Log10 CFU/mL From Inoculum (0 hr): 0.17 Log10 CFU/mL
[11]; AECO1162, 6 h
  Change in Log10 CFU/mL From Inoculum (0 hr): 2.19 Log10 CFU/mL
[11]; AECO1162, 24 h
  Change in Log10 CFU/mL From Inoculum (0 hr): 3.46 Log10 CFU/mL
[11]; AECO1166, 2 h
  Change in Log10 CFU/mL From Inoculum (0 hr): −1.30 Log10 CFU/mL
[11]; AECO1166, 4 h
  Change in Log10 CFU/mL From Inoculum (0 hr): 0.58 Log10 CFU/mL
[11]; AECO1166, 6 h
  Change in Log10 CFU/mL From Inoculum (0 hr): 2.24 Log10 CFU/mL
[11]; AECO1166, 24 h
  Change in Log10 CFU/mL From Inoculum (0 hr): 3.71 Log10 CFU/mL
[12]; E. coli CTX-M-15, TEM-OSBL
  MIC: > 64 µg/mL
[12]; E. coli CTX-M-55, listed as CTB
  MIC: >64 µg/mL
[12]; Escherichia coli, E. coli CTX-M-55, read-out: MIC
  MIC: > 64 µg/mL
[13]; AECO1156 (CTXM-15, TEM-OSBL)
  MIC: 16 µg/mL (≈ 39 µM)
[13]; AECO1157 (CTXM-15, TEM-OSBL)
  MIC: 8 µg/mL (≈ 19.5 µM)
[13]; AECO1162 (CTX-M-14)
  MIC: 8 µg/mL (≈ 19.5 µM)
[13]; AECO1166 (SHV-12)
  MIC: 2 µg/mL (≈ 4.87 µM)
[14]; read-out: MIC CTX-M-15 Strain − CLV
  MIC: 16 µg/mL
[14]; with CLV
  MIC CTX-M-15 Strain + CLV: 1 µg/mL
[15]; AKP1162 (SHV-12, CTX-M-15)
  MIC: 32 µg/mL (≈ 78 µM)
[15]; AKPN1159 (SHV-12)
  MIC: 4 µg/mL (≈ 9.75 µM)
[16]
  IC50: > 1 mM
[16]; read-out: IC50 (95% CI), competition with nitrocefin
  IC50: > 1 mM
[17]; AKOX1005 (SHV-2, TEM-1, DHA-1)
  MIC: 2 µg/mL
[17]; AKOX1009 (CTX-M-15)
  MIC: 4 µg/mL
[18]
  MIC: 8 µg/mL (≈ 19.5 µM)
[19]; 400 mg
  Mean Cmax: 15000 ng/mL
  Mean fCmax: 5.3 µg/mL
[19]; po
  bioavailability: 40-90%
  time free drug concentrations >2 μg/mL following drug administration: at least 6 hours
[19]
  Elimination half-life: ~2.4 h
  Mean unbound plasma concentration following one elimination half-life: 2600 ng/mL
[20]
  MIC: 0.5 µg/mL
